Experimental data as given in a melting point compilation (Tetko et al.; mined from patent text by program, amines drawn as free bases though some values may be those of a salt).

| SMILES | melting point |
| --- | --- |
| FC(F)(F)c1nn(-c2c(Cl)cc(Cl)cc2Cl)cc1Br | 93 to 94 °C |
| COc1ccc(I)c(CC(=O)O)c1 | 134 °C |
| C[C@@H]1OC(=O)C2=C[C@H]3CCCC[C@@H]3[C@@H](O)[C@H]21 | 191 to 193 °C |
| Cc1c(NC(=O)CC(C)(C)C)c(C)c2c(c1-c1nccs1)OCC2c1ccc(C(C)C)cc1 (stereo not given) | 164 to 166 °C |
| O=C(Nc1cccc(C(=O)Nc2nnn[nH]2)c1)NC1N=C(c2ccccc2F)c2ccccc2N(CC(=O)N2CC3CCC(CC3)C2)C1=O (racemic) | 193 to 196 °C |
| COc1ccnc(CS(=O)c2nc3cc(Cl)c(Cl)cc3[nH]2)c1C (stereo not given) | 173 °C |
| CCCCCCCCCCC(O)CNCCNCC(O)CCCCCCCCCC (stereo not given) | 137 to 142 °C |
| COc1nc(OC)c(C=CC(C)=O)c(N(C)C)n1 | 116 °C |
| CN(C)CCCCCCCCCOc1ccc2oc(-c3ccccc3)cc(=O)c2c1 | 52 to 53 °C |
| CC(C)On1c(-c2ccccc2)nc2c(N)nc3ccccc3c21 | 188 to 191 °C |
| CC(=O)Nc1nc(N)c2ncn(C3OC(C(O)C(=O)O)C(O)C3O)c2n1 (stereo not given) | 295 °C |
| Cc1noc(=O)c2ccc(NC(=O)C(C)(O)CC(C)(C)c3ccccc3)cc12 (stereo not given) | 173 to 175 °C |
| O=NN1CCc2cc(Cl)ccc21 | 120 to 122 °C |
| CC(N)C(=O)N1C(C(=O)O)CC2CCCCC21 (stereo not given) | 163 to 165 °C |
| C=CC(=O)Nc1ccc2[nH]nnc2c1 | 248 to 253 °C |
| Cc1cccc(Cc2ccc(-c3cnn4c(O)ncnc34)cc2)c1 | 271 to 278 °C |
| Cc1ccc2nc(-c3ccc([N+](=O)[O-])cc3)cn2c1 | 237 to 239 °C |
| N=C(N)c1ccc(N2CC(CN3CCC(CC(=O)O)(C(=O)O)CC3)OC2=O)cc1 (stereo not given) | 145 °C |
| CC(=O)OS(=O)(=O)c1ccc(C)cc1 | 56 to 60 °C |
| O=c1[nH]c2cc(Cl)ccc2c(O)c1Sc1cccc(Br)c1 | 265 to 268 °C |
| CC1(C)CCC(C)(C)c2c(OCc3ccc(C(F)(F)F)cc3)cc(C(O)C#Cc3ccc(C(=O)O)cc3)cc21 (stereo not given) | 222 °C |

| SMILES | melting point |
| --- | --- |
| Nc1nnc(-c2cc3c(Oc4ccc(Cl)cc4)cncc3s2)[nH]1 | > 270 °C |
| O=C1NCCC[C@@H]1NS(=O)(=O)c1cccc(C(F)(F)F)c1 | 158 to 160 °C |
| COc1cc2c(c(F)c1CNC1CCCNC1c1ccccc1)N(C)C(=O)CC2(C)C (stereo not given) | > 270 °C |
| COc1c(C(C)(C)C)cc(P(c2cc(C(C)(C)C)c(OC)c(C(C)(C)C)c2)c2ccccc2P2c3ccccc3CC2C(C)C)cc1C(C)(C)C (single isomer, unassigned; (+)) | 69 to 70 °C |
| CC(C)c1cc(O)cc(C(C)C)c1NC(=O)CN1CCN(CCCSc2nc3ccccc3o2)CC1 | 201 to 203 °C |
| COCCNC(=O)c1cc(F)cc(-c2cccc3c(C)c(Cc4cccc(C(F)(F)F)c4)sc23)c1 | 124 to 126 °C |
| Cc1cn(-c2ccc(NC(=O)c3ccc(C)c(C#Cc4cnc(NC5CC5)nc4)c3)cc2C(F)(F)F)cn1 | 131 to 133 °C |
| CC(=O)NC1Cc2ccc(S(=O)(=O)Cl)cc2C1 (stereo not given) | 237 to 239 °C |
| CCOC(=O)CNc1ccc2ncccc2c1 | 122 to 123 °C |
| O=C1C(CCO)Oc2cc(F)ccc2N1Cc1ccccc1[N+](=O)[O-] (stereo not given) | 123 to 124 °C |
| C1=C(c2c[nH]c3ccccc23)CCN(CC2COc3ccc4occc4c3O2)C1 (stereo not given) | 208 to 209 °C |
| O=c1c(Br)cc2cnc(Nc3ccccn3)nc2n1C1CCCC1 | 273 to 275 °C |
| C=CC(O)c1[nH]c(=O)c2c(ccc3nc(Nc4c(Cl)cccc4Cl)n(C)c32)c1C (stereo not given) | 235 to 236 °C |
| CCCCc1nc2cccc(C(=O)OCOC(=O)C(C)(C)C)c2n1Cc1ccc2nc(-c3ccccc3-c3nnn[nH]3)ncc2c1 | 126 to 128 °C |
| COC(=O)[C@@H]1C(=O)Nc2ccccc2C[C@H]1c1ccc2c(c1)OCO2 (racemic) | 211 to 214 °C |
| COc1ccc(-c2cc(=O)[nH]nc2C)cc1 | 255 to 256 °C |
| CC(O)c1ccc2c(c1)ncn2-c1cccc(-c2cccnc2O)c1 (stereo not given) | 133 to 137 °C |
| CCC(CS(=O)(=O)c1ccc(-c2ccc(OC)cc2)cc1)N(O)C=O (stereo not given) | 199 to 200 °C |
| CN1C(=O)C2CC2(c2ccc(N)cc2)C1=O (stereo not given) | 137 to 139 °C |
| CC(C)(C)OC(=O)N1CCC(c2c[nH]c3ccc(N)cc23)CC1 | 205 to 207 °C |
| O=C(CC1CCOCC1)Oc1cc(=O)n(-c2ccccc2)c2ncccc12 | 169 to 171 °C |

| SMILES | melting point |
| --- | --- |
| COc1ccc2c(c1)C(=O)CC1C2CCC2(C)C(O[Si](C)(C)C(C)(C)C)CCC12 (stereo not given) | 159 to 160 °C |
| CNCCc1cccc(N2C(=O)N(c3ccc(Cl)cc3Cl)Cc3cnc(Nc4ccccc4)nc32)c1 | 120 to 122 °C |
| CCc1nc2c(N)nc3c(c2n1CCOCCS(C)(=O)=O)CCCC3 | 146 to 148 °C |
| CCCCC(CC)Cn1c(O)c(N=Nc2ccc(S(=O)(=O)N(CCO)CCO)cc2)c(C)c(C#N)c1=O (stereo not given) | 189 to 190 °C |
| O=C(NCCN1CCNCC1)c1cccc(C=CC(=O)N2CCc3c([nH]c4ccccc34)C2c2ccc3c(c2)OCO3)c1 (stereo not given) | 138 to 140 °C |
| Cc1ccc(C)c(C(Cl)=NNc2ccccc2)c1 | 48.5 to 49 °C |
| Cc1scc(-c2ccccc2)c1N=C1NCCN1 | 140 to 141 °C |
| CCOC(=O)C[C@@H]1C(=O)N(S(=O)(=O)c2ccc(OC)cc2)C=C[C@@H]1c1ccccc1 | 111 to 113 °C |
| O=C(O)c1cccc(N2CCC(N=Cc3ccccc3)=N2)c1 | 185 °C |
| N#CC(c1ccc(Cl)cc1)c1ccc(-n2ncc(=O)[nH]c2=O)cc1 (stereo not given) | 206 °C |
| O=C(NC(=S)Nc1ccccc1-c1ccccc1F)c1ccccc1 | 110 to 111 °C |
| N#CCSc1nc2cc(Cl)ccc2s1 | 96 to 97 °C |
| COC(=O)CCCc1cc2nc(Cl)ccc2n1S(=O)(=O)c1cc(F)cc(F)c1 | 90 °C |
| COc1cc(Nc2c(C#N)cnc3cc(OCCCN4CCS(=O)(=O)CC4)c(OC)cc23)c(Cl)cc1Cl | 118 to 120 °C |
| CSc1cc(C)nc(SC)c1NC(=O)CCCCSc1nc2c(C)c(Cl)cc(C(C)C)c2o1 | 155 to 156 °C |
| COc1ccc(S(=O)(=O)N(CCCO)c2ccc(Cl)cc2Cc2c(F)cccc2F)cc1OC | 138 °C |
| CCc1nccn1Cc1ccc2c(c1)Cc1c(-c3ccsc3)n[nH]c1-2 | 129 to 132 °C |
| Cc1ncc(CS)c2c1OC(c1ccccc1)OC2 (stereo not given) | 110 to 112 °C |
| CCOC1CC2(C)C(CCC3C4CCC(C(=O)OC)C4(C)CC(NC4CCCCC4)C32)CC1O (stereo not given) | 110 to 112 °C |
| CC1CCN(c2c(F)cc3c(=O)c(C(=O)O)cn4c3c2CCC4C)CC1 (stereo not given) | 266 to 268 °C |

Other lines, results leading:

| melting point | SMILES |
| --- | --- |
| 125 to 127 °C | Cc1[nH]c(-c2ccccc2F)c(C)c1C#N |
| 135 to 138 °C | O=C(Nc1cccc([N+](=O)[O-])c1)C(=O)N1CCC(Cc2ccc(F)cc2)CC1 |
| 51 to 55 °C | CC(OS(=O)(=O)C(F)(F)F)=C(C(=O)OCc1ccccc1)N1C(=O)[C@@H](N2C(=O)c3ccccc3C2=O)[C@H]1COS(C)(=O)=O |
| 198 to 200 °C | N#Cc1cccc(-c2ccc3c(c2)C2(CCCCC2)C(=NO)N3)c1 |
| 257 °C | CCOc1cc(-c2cc(C(F)(F)F)n3ncc(-c4cc(C)nc(C)c4)c3n2)ccc1C(F)(F)F |
| 37.5 °C | Cc1ccc(S(=O)(=O)OCP(=O)(OC(C)C)OC(C)C)cc1 |
| 184 to 186 °C | Nc1ccc(S(=O)(=O)c2cc(-c3cc(C(F)(F)F)cc(C(F)(F)F)c3)nc(N3CCCC3)c2)cc1 |
| 160 to 162 °C | CN(C)CC1CCCCN1CCCNC(=O)N1c2ccccc2C(=O)Nc2cccnc21 (stereo not given) |
| 67 to 72 °C | COc1ccc2c(c1)CC(=O)CO2 |
| 130 to 132 °C | Cc1ccc(C(O)CN(C)Cc2cc3c(=O)c(C(=O)NCc4ccc(Cl)cc4)cn(C)c3o2)o1 (stereo not given) |
| 83 to 85 °C | CCCCc1nn(-c2ccccc2C(F)(F)F)c(=O)n1Cc1ccc(-c2ccccc2S(=O)(=O)NC(=O)OC(C)(C)C)cc1F |
| 59 to 61 °C | CC(COc1ccc(Oc2ccccc2)cc1)=NO |
| 186 to 188 °C | Cc1noc(NS(=O)(=O)c2ccc(-c3ccccn3)s2)c1Br |
| 159 to 160 °C | Cc1cccc2c1C(=O)N1CC[C@H]1C(=O)N2 |
| 152 to 153 °C | COC(=O)Nc1ccc(OCCn2ccnc2)cc1 |
| 205 to 210 °C | N#Cc1cc(/C=C/C(=O)Nc2ccc(Br)cc2)ccc1F |
| 262 °C | CCCC1=C(C#N)C(c2ccccc2Cl)c2c(n[nH]c2-c2ccccc2)N1 (stereo not given) |

| melting point | SMILES |
| --- | --- |
| 98 to 100 °C | CCCCC(Cc1ccc(OCCNC(=O)c2ccc(-c3cccc(O)c3)cc2)cc1)C(=O)O (stereo not given) |
| 169 to 171 °C | N#Cc1ccc(C(=O)Nc2ccc(-n3nc(C(F)(F)F)cc3C(F)(F)F)cc2)cc1 |
| 110 to 112 °C | c1ccc(CN2CCC(c3nc(-c4ccc(-c5ccccc5)cc4)c[nH]3)CC2)cc1 |
| 217 to 219 °C | Cc1cnc(N)c(=O)n1C |
| 55 to 58 °C | CCN(C(=O)OC(C)(C)C)c1cn(-c2cccnc2)nc1Cl |
| 95 to 96 °C | CCCOc1c(OC)cc([C@H]2CC[C@H](c3cc(OC)c(OC)c(OC)c3)O2)cc1S(C)(=O)=O (relative stereo) |
| 137 °C | CC(C)(C)OC(=O)Nc1ccc(C#Cc2nccs2)cc1[N+](=O)[O-] |
| 175 to 176 °C | Cc1cc(Cc2nnc(Nc3ccc(Cl)cc3)c3ccccc23)cc(C)n1 |
| 150 to 151 °C | COc1nccc(-c2ccc3cc(N(C)C)ccc3c2)c1C#N |
| 154 to 158 °C | CN1CCCC1=NCCOS(=O)(=O)Oc1c[nH]c2ccccc12 |
| 113 to 114 °C | COC(=O)N[C@@H](CSc1ccccc1)[C@H](O)CCl |
| 116 °C | COc1ccc([C@@H]2Cc3c(cccc3C(F)(F)F)N(CC3=NCCN3C(=O)OC(C)(C)C)C(=O)[C@@H]2O)cc1 |
| 135 °C | O=S(=O)(COc1ncc(Cl)cn1)c1ncc(Cl)cn1 |
| 186 to 188 °C | Cc1cc2ccc(Cl)c(C(=O)O)c2nc1C(F)(F)F |
| 227 to 228 °C | Cc1c(F)c(N2CCCC(n3ccnn3)C2)c(F)c2c1c(=O)c(C(=O)O)cn2C1CC1 (stereo not given) |
| 217 to 218 °C | CCS(=O)(=O)c1cc2c(c(C(=O)O)c1)OCCO2 |
